Target: T1, Na+-F1FO ATP synthase (Thermotoga maritima, UniProt O50550+Q9X1U7+Q9X1V0)
T1 construct: gene atpE; native F1FO complex purified with DDM, no tags; 550 kDa on native PAGE; co-purified with Rnf; with ATP synthase gamma chain; ATP synthase subunit delta; ATP synthase epsilon chain; ATP synthase subunit a; ATP synthase subunit b
Test: ATP hydrolysis (phosphate release) after preincubation
Assay type: biochemical
Conditions: covalent; preincubation without Na+ 30 min room temperature, then 5 min 80 °C; 3 mM K2-ATP, pH 7.4; competes with Na+

Q: For `C(=NC1CCCCC1)=NC1CCCCC1` [DCCD], which inhibition is on record?
A: Its inhibition is “DCCD inhibited ATP hydrolysis but inhibition was relieved by addition of Na^+”.

Source: paper PMC7414866, “The Rnf complex is a Na^+ coupled respiratory enzyme in a fermenting bacterium, Thermotoga maritima” (Communications Biology, 2020)
